Assays:
[1] = Cmax in Sprague-Dawley rat at 15 mg/kg, ig administered for 28 days by LC-MS/MS analysis; assay type: ADME, organism-based; design: route intragastric, dose 15 mg/kg, time 28 day; settings: in vivo, po
[2] = AUC (0 to 24hrs) in monkey at 5 mg/kg, ig by LC-MS/MS analysis; assay type: ADME, organism-based, Macaca mulatta; design: time < 24 hr, route intragastric, dose 5 mg/kg; settings: rhesus monkey, in vivo, po
[3] = Toxicity in Sprague-Dawley rat assessed as effect on food intake at 150 mg/kg/day, ig administered for 28 days; assay type: organism-based; settings: in vivo, po, 672 h, time 28 day
[4] = AUC (0 to 24hrs) in Sprague-Dawley rat at 15 mg/kg, ig by LC-MS/MS analysis; assay type: ADME, organism-based; design: time < 24 hr, route intragastric, dose 15 mg/kg; settings: in vivo, po
[5] = target: 5-hydroxytryptamine receptor 2B (Homo sapiens, UniProt P41595); test: Binding affinity to human 5HT2B receptor
Sequence of 5-hydroxytryptamine receptor 2B (P41595 whole entry): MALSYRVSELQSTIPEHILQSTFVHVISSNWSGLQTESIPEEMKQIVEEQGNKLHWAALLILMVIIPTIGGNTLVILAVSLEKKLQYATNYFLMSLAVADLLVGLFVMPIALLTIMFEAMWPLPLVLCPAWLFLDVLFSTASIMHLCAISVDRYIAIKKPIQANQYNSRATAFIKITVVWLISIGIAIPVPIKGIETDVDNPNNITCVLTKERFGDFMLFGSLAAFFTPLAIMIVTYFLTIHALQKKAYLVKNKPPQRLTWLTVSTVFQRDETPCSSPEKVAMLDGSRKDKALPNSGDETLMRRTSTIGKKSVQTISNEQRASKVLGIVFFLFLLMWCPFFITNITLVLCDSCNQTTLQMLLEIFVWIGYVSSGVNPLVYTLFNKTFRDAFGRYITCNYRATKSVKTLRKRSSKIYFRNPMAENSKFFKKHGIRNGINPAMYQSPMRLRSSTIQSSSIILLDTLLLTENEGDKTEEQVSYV

[6] = Toxicity in ig dosed monkey administered for 28 days; assay type: organism-based, Macaca mulatta; settings: rhesus monkey, in vivo, po; time 28 day
[7] = Toxicity in Sprague-Dawley rat assessed as effect on body weight at 150 mg/kg/day, ig administered for 28 days; assay type: organism-based; settings: in vivo, po, 672 h, time 28 day
[8] = AUC (0 to 24hrs) in Sprague-Dawley rat at 150 mg/kg, ig by LC-MS/MS analysis; assay type: ADME, organism-based; design: time < 24 hr, route intragastric, dose 150 mg/kg; settings: in vivo, po
[9] = Clearance in Sprague-Dawley rat at 1 mg/kg, iv measured for 24 hrs by LC-MS/MS analysis; assay type: ADME, organism-based; settings: in vivo
[10] = target: T1, 5-hydroxytryptamine receptor 3A (Homo sapiens, UniProt P46098); test: Binding affinity to human 5HT3 receptor
T1 sequence (P46098 whole entry): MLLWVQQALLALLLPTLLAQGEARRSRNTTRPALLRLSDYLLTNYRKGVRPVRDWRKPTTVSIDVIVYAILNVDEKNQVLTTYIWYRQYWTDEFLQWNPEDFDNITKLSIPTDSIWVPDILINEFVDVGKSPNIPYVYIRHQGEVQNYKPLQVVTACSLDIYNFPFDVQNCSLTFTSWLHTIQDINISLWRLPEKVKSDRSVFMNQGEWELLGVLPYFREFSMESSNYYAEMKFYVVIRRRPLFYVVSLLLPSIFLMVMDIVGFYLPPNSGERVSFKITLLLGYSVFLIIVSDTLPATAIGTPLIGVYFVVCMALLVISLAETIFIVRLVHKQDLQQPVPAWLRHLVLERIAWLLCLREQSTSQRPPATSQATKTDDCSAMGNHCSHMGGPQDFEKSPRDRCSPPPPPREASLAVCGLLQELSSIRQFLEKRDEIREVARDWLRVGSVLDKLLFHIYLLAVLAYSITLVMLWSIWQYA

[11] = target: T2, 5-hydroxytryptamine receptor 1A (Homo sapiens, UniProt P08908); test: Binding affinity to human 5HT1A receptor
T2 sequence (P08908 whole entry): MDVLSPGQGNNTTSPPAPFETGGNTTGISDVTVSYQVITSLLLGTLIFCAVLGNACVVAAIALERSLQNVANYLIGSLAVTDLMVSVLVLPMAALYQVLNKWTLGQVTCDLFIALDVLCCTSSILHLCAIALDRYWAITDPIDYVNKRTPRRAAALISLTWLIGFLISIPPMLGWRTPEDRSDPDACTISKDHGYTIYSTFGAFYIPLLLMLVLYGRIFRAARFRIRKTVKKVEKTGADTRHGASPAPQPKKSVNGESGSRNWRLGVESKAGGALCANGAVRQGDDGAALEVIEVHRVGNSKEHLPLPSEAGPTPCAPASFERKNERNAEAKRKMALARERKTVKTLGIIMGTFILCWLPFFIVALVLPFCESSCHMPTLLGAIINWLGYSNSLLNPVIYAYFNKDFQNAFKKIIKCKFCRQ

Structure (SMILES): CN1CCC(=C(F)c2cccc(NC(=O)c3c(F)cc(F)cc3F)n2)CC1
- Cmax [1]: 160 ng/mL
- AUC(0-t) at 24 h [2]: 45200 ng·h/mL
- Activity [3]: Non-Toxic
- AUC(0-t) at 24 h [4]: 849 ng·h/mL
- IC50 [5]: 8.61 µM
- NOAEL at 672 h [6]: 5 mg/kg/day
- Activity [7]: Non-Toxic
- AUC(0-t) at 24 h [8]: 10200 ng·h/mL
- clearance [9]: 127 mL/min/kg
- IC50 [10]: > 10 µM
- IC50 [11]: 0.151 µM
